Measured values taken from the NIST ThermoML archive (doi:10.1021/acs.jced.7b00335).
± gives the expanded uncertainty stated by the source.

Experiment: xn = mol fraction of the nth substance listed
Conditions: 100 kPa, Liquid; for viscosity: Concentric cylinders viscometry; for mass density: Vibrating tube method

Q: What does the source list for `O=Cc1ccccc1` [benzaldehyde] + CCC(C)O?
A: viscosity (293.15 K, x1 = 0.0813): 3.08 ± 0.12 mPa·s; viscosity (293.15 K, x1 = 0.1623): 2.62 ± 0.11 mPa·s; viscosity (293.15 K, x1 = 0.2401): 2.3 ± 0.09 mPa·s; viscosity (293.15 K, x1 = 0.3517): 1.97 ± 0.08 mPa·s; viscosity (293.15 K, x1 = 0.4404): 1.791 ± 0.072 mPa·s; viscosity (293.15 K, x1 = 0.5612): 1.648 ± 0.067 mPa·s; viscosity (293.15 K, x1 = 0.6519): 1.576 ± 0.064 mPa·s; viscosity (293.15 K, x1 = 0.7423): 1.528 ± 0.062 mPa·s; viscosity (293.15 K, x1 = 0.8511): 1.506 ± 0.061 mPa·s; viscosity (293.15 K, x1 = 0.94): 1.511 ± 0.061 mPa·s; viscosity (293.15 K, x1 = 1): 1.52 ± 0.06 mPa·s; mass density (293.15 K, x1 = 0.0813): 824.7 ± 1 kg/m3; mass density (293.15 K, x1 = 0.1623): 842.8 ± 1 kg/m3; mass density (293.15 K, x1 = 0.2401): 860.9 ± 1 kg/m3; mass density (293.15 K, x1 = 0.3517): 886.9 ± 1 kg/m3; mass density (293.15 K, x1 = 0.4404): 908.4 ± 1 kg/m3; mass density (293.15 K, x1 = 0.5612): 938.1 ± 1 kg/m3; mass density (293.15 K, x1 = 0.6519): 961 ± 1 kg/m3; mass density (293.15 K, x1 = 0.7423): 984.4 ± 1 kg/m3; mass density (293.15 K, x1 = 0.8511): 1012.1 ± 1 kg/m3; mass density (293.15 K, x1 = 0.94): 1032.5 ± 1 kg/m3; mass density (293.15 K, x1 = 1): 1046.3 ± 1 kg/m3; viscosity (298.15 K, x1 = 0.0813): 2.65 ± 0.11 mPa·s; viscosity (298.15 K, x1 = 0.1623): 2.31 ± 0.09 mPa·s; viscosity (298.15 K, x1 = 0.2401): 2.027 ± 0.082 mPa·s; viscosity (298.15 K, x1 = 0.3517): 1.75 ± 0.07 mPa·s; viscosity (298.15 K, x1 = 0.4404): 1.61 ± 0.07 mPa·s; viscosity (298.15 K, x1 = 0.5612): 1.487 ± 0.06 mPa·s; viscosity (298.15 K, x1 = 0.6519): 1.426 ± 0.058 mPa·s; viscosity (298.15 K, x1 = 0.7423): 1.39 ± 0.06 mPa·s; viscosity (298.15 K, x1 = 0.8511): 1.38 ± 0.06 mPa·s; viscosity (298.15 K, x1 = 0.94): 1.39 ± 0.06 mPa·s; viscosity (298.15 K, x1 = 1): 1.41 ± 0.06 mPa·s; mass density (298.15 K, x1 = 0.0813): 821.2 ± 1 kg/m3; mass density (298.15 K, x1 = 0.1623): 839.5 ± 1 kg/m3; mass density (298.15 K, x1 = 0.2401): 857.3 ± 1 kg/m3; mass density (298.15 K, x1 = 0.3517): 883.2 ± 1 kg/m3; mass density (298.15 K, x1 = 0.4404): 905.3 ± 1 kg/m3; mass density (298.15 K, x1 = 0.5612): 934.6 ± 1 kg/m3; mass density (298.15 K, x1 = 0.6519): 957.6 ± 1 kg/m3; mass density (298.15 K, x1 = 0.7423): 980.2 ± 1 kg/m3; mass density (298.15 K, x1 = 0.8511): 1007.3 ± 1 kg/m3; mass density (298.15 K, x1 = 0.94): 1028.6 ± 1 kg/m3; mass density (298.15 K, x1 = 1): 1041.7 ± 1 kg/m3; viscosity (303.15 K, x1 = 0.0813): 2.23 ± 0.09 mPa·s; viscosity (303.15 K, x1 = 0.1623): 1.984 ± 0.08 mPa·s; viscosity (303.15 K, x1 = 0.2401): 1.78 ± 0.07 mPa·s; viscosity (303.15 K, x1 = 0.3517): 1.561 ± 0.063 mPa·s; viscosity (303.15 K, x1 = 0.4404): 1.438 ± 0.058 mPa·s; viscosity (303.15 K, x1 = 0.5612): 1.322 ± 0.054 mPa·s; viscosity (303.15 K, x1 = 0.6519): 1.279 ± 0.052 mPa·s; viscosity (303.15 K, x1 = 0.7423): 1.255 ± 0.051 mPa·s; viscosity (303.15 K, x1 = 0.8511): 1.255 ± 0.051 mPa·s; viscosity (303.15 K, x1 = 0.94): 1.277 ± 0.052 mPa·s; viscosity (303.15 K, x1 = 1): 1.31 ± 0.05 mPa·s; mass density (303.15 K, x1 = 0.0813): 816.3 ± 1 kg/m3; mass density (303.15 K, x1 = 0.1623): 834.1 ± 1 kg/m3; mass density (303.15 K, x1 = 0.2401): 852.4 ± 1 kg/m3; mass density (303.15 K, x1 = 0.3517): 878.1 ± 1 kg/m3; mass density (303.15 K, x1 = 0.4404): 899.7 ± 1 kg/m3; mass density (303.15 K, x1 = 0.5612): 929.2 ± 1 kg/m3; mass density (303.15 K, x1 = 0.6519): 952.1 ± 1 kg/m3; mass density (303.15 K, x1 = 0.7423): 975.7 ± 1 kg/m3; mass density (303.15 K, x1 = 0.8511): 1002.1 ± 1 kg/m3; mass density (303.15 K, x1 = 0.94): 1023.2 ± 1 kg/m3; mass density (303.15 K, x1 = 1): 1037.1 ± 1 kg/m3; viscosity (308.15 K, x1 = 0.0813): 1.897 ± 0.077 mPa·s; viscosity (308.15 K, x1 = 0.1623): 1.7 ± 0.07 mPa·s; viscosity (308.15 K, x1 = 0.2401): 1.55 ± 0.06 mPa·s; viscosity (308.15 K, x1 = 0.3517): 1.383 ± 0.056 mPa·s; viscosity (308.15 K, x1 = 0.4404): 1.284 ± 0.052 mPa·s; viscosity (308.15 K, x1 = 0.5612): 1.194 ± 0.048 mPa·s; viscosity (308.15 K, x1 = 0.6519): 1.156 ± 0.047 mPa·s; viscosity (308.15 K, x1 = 0.7423): 1.139 ± 0.046 mPa·s; viscosity (308.15 K, x1 = 0.8511): 1.149 ± 0.047 mPa·s; viscosity (308.15 K, x1 = 0.94): 1.182 ± 0.048 mPa·s; viscosity (308.15 K, x1 = 1): 1.22 ± 0.05 mPa·s
